From US6361788B1, “Synergistic biocide composition” (Thor Chemie GmbH, priority 1997, dated 2002)
Where two headings read alike, the source gives them in different places.

Test system: Penicillium funiculosum
Test: MIC and synergy of MIT/BIT (1:1) and BNPD in Sabouraud maltose broth, 72 h
Type: cell-based
Conditions: for growth of the microorganism: MIT/BIT 0 ppm; for MIC: Talaromyces funiculosus
Method: In all the examples in which an active substance mixture of MIT and BIT as well as additionally a further active biocidal substance was used, the weight ratio of MIT to BIT was 1:1.
The synergy index is calculated according to the method of F. C. Kull et al., Applied Microbiology, Vol. 9 (1961), p. 538. Here the synergy index is calculated using the following formula:
Synergy index SI=Qa/QA+Qb/QB.
The synergy of an active substance that contains 2-bromo-2-nitropropane-1,3-diol (BNPD) in addition to MIT and BIT, against the microorganism Penicillium funiculosum is shown as in Example 1.
The test batches contained a Sabouraud maltose broth as a nutrient medium. The spore concentration was 10^6 per mL. The incubation time was 72 h at 25° C. Each sample was incubated on an incubation shaker at 120 rpm.

[1] = MIT/BIT 0.0% by wt, BNPD 100.0% by wt, 72 h

## O=[N+]([O-])C(Br)(CO)CO [BNPD, 2-bromo-2-nitropropane-1,3-diol]
[1]
  Qb/QB: 1.00
  Synergy index Qa/QA + Qb/QB: 1.00
BNPD 25 ppm, 72 h
  growth of the microorganism: +
BNPD 50 ppm, 72 h
  growth of the microorganism: +
BNPD 100 ppm, 72 h
  growth of the microorganism: +
BNPD 150 ppm, 72 h
  growth of the microorganism: +
BNPD 200 ppm, 72 h
  growth of the microorganism: +
BNPD 300 ppm, 72 h
  growth of the microorganism: +
BNPD 400 ppm, 72 h
  growth of the microorganism: +
BNPD 600 ppm, 72 h
  growth of the microorganism: −
BNPD 800 ppm, 72 h
  growth of the microorganism: −
BNPD 1000 ppm, 72 h
  growth of the microorganism: −
MIT/BIT 0.0% by wt, BNPD 100.0% by wt, 72 h, read-out: MIC at BNPD concentration Qb
  MIC: 600 µg/mL
MIT/BIT 0.0% by wt, BNPD 100.0% by wt, 72 h, read-out: MIC at Total concentration MIT/BIT + BNPD
  MIC: 600 µg/mL
Used alone, 72 h at 25° C., read-out: MIC value
  MIC: 600 µg/mL
